Assay results taken from patent US20120129811A1, “TRICYCLIC INHIBITORS OF PRO-MATRIX METALLOPROTEINASE ACTIVATION” (priority 2010, published 2012).
Counter-ions that a name gives are not always drawn.

Columns and labels:
[1] = molecular target: T1, proMMP9(20-445;ΔFnII) (SEQ ID NO:6) (Homo sapiens, UniProt P14780, DEL216-390); experiment: ThermoFluor binding assay with proMMP9(20-445;ΔFnII)
T1 construct: start methionine (N); made in house; host or cells: E. coli BL21(DE3) RIL
T1 sequence (P14780 with tags, fused parts or gaps DEL216-390): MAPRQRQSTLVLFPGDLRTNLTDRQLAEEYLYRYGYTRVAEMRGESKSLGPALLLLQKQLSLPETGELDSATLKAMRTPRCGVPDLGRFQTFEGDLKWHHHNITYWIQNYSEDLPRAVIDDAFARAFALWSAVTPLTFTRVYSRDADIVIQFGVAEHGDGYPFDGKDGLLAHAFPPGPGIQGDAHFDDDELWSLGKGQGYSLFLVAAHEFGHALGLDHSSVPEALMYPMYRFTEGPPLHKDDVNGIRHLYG
Procedure, shortened: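 Protein thermal stability was measured with 2.8 μM proMMP9(20-445;ΔFnII) and 50 μM 1,8-ANS in 50 mM HEPES pH 7.0, 100 mM NaCl, 0.001% Tween-20, 2.5 mM MgCl2, 300 μM CaCl2, across serial compound dilutions. Samples were heated 40–90° C at 1° C/min with fluorescence read at 500 nm. Tm was fitted, and binding was derived from thermodynamic parameters obtained by DSC and ThermoFluor.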

[2] = molecular target: T2, proMMP9(67-444;ΔFnII) (SEQ ID NO:5) (Homo sapiens, UniProt P14780, DEL216-390); experiment: ThermoFluor binding assay with proMMP9(67-444;ΔFnII)
T2 construct: start methionine (N); made in house; host or cells: E. coli BL21(DE3) RIL
T2 sequence (P14780 with tags, fused parts or gaps DEL216-390): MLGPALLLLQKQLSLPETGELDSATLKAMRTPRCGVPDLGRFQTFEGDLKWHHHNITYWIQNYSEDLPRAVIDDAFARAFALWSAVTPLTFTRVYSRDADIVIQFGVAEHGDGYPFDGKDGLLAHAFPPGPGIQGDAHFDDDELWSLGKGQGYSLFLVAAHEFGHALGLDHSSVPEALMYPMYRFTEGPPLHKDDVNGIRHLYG
Procedure, shortened: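 Thermal shift of 3.5 μM proMMP9(67-444;ΔFnII), desalted beforehand, with 50 μM 1,8-ANS in 50 mM HEPES pH 7.0, 100 mM NaCl, 2.5 mM MgCl2, 300 μM CaCl2, 0.001% Tween-20. Heated 40–90 °C at 1 °C/min, fluorescence read at 500 nm; binding fitted from Tm shifts using DSC- and ThermoFluor-derived unfolding parameters.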

[3] = molecular target: T3, proMMP13(1-268) activation by plasmin (Homo sapiens, UniProt P45452); experiment: ProMMP13/Plasmin P126 Activation Assay; format: biochemical
T3 construct: 6xHis (C); made in house; host or cells: HEK293 (proMMP13)
Method: ProMMP13/Plasmin P126 Activation Assay
On the day of assay, proMMP13(1-268) (SEQ ID NO:7) purified from HEK293 cells and plasmin were diluted to 160 nM and 320 nM, respectively, in assay buffer. The reaction volume was 50 μL. […] The plate was sealed and incubated for 40 min at 37° C. […] Plasmin was not reactive towards P-126 substrate under these conditions.

[4] = molecular target: T4, full-length proMMP9(1-707) activation by catalytic MMP3 (Homo sapiens, UniProt P14780, R574P); experiment: proMMP9/MMP3 P126 Activation Assay; format: biochemical
T4 construct: made in house; host or cells: proMMP9: HEK293 (secreted); MMP3: E. coli
Method: proMMP9/MMP3 P126 Activation Assay
The reaction volume was 50 μL. […] Reactivity of residual MMP3 towards P-126 substrate was minimal under these conditions.

[5] = molecular target: T5, proMMP13(1-268) (SEQ ID NO:7) (Homo sapiens, UniProt P45452); experiment: ThermoFluor binding assay with proMMP13(1-268)
T5 construct: 6xHis (C); made in house; host or cells: HEK293 (transient, secreted)
Procedure, shortened: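 Thermal shift of desalted proMMP13(1-268) at 3.5 μM final, in 50 mM HEPES pH 7.0, 100 mM NaCl, 0.001% Tween-20, 2.5 mM MgCl2, 300 μM CaCl2, with 25 μM 1,8-ANS. Serially diluted compounds heated 40–90° C. at 1° C./min, fluorescence read at 500±25 nm. Tm fitted; binding modeled using DSC-derived thermodynamic parameters.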

T4 sequence (P14780 20-707 R574P): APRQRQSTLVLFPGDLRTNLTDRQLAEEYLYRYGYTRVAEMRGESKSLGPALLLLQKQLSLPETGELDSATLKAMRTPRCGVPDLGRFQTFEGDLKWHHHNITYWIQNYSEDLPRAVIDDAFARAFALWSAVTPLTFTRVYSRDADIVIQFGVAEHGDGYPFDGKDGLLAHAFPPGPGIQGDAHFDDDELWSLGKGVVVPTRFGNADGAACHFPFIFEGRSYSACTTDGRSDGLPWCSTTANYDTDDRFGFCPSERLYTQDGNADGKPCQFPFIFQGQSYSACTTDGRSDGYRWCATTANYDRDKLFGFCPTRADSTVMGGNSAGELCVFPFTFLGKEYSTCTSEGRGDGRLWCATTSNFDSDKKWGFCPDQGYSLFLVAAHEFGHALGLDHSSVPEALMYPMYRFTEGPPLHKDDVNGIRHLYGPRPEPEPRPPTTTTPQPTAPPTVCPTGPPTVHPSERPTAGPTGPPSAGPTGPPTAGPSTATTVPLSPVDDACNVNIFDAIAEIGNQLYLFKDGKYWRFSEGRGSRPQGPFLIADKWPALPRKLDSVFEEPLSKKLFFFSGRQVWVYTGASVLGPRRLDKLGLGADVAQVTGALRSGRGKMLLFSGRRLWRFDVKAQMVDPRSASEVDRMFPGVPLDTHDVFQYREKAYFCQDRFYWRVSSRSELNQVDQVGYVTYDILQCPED

CC(C)Oc1ccc(C(N)=O)cc1Nc1nc2c(ccc3c2cnn3C)s1 [Example 30, 4-Isopropoxy-3-(6-methyl-6H-3-thia-1,6,7-triaza-as-indacen-2-ylamino)-benzamide.HCl]
Kd [1]: 120 nM | Kd [2]: 310 nM | IC50 [3]: 4500 nM | IC50 [4]: 190 nM | Kd [5]: 930 nM

CCn1cnc2ccc3sc(Nc4cc(C(N)=O)ccc4OC(C)C)nc3c21 [Example 33, 3-(8-Ethyl-8H-imidazo[4′,5′:3,4]-benzo[2,1-d]thiazol-2-ylamino)-4-isopropoxy-benzamide.HCl]
Kd [1]: 86 nM | Kd [2]: 490 nM | IC50 [3]: 1100 nM | IC50 [4]: 100 nM | Kd [5]: 580 nM

COc1cc(C(N)=O)ccc1Nc1nc2c(ccc3c2ncn3C)s1 [Example 51, 3-Methoxy-4-(6-methyl-6H-imidazo[4′,5′:3,4]benzo[2,1-d]thiazol-2-ylamino)-benzamide.HCl]
Kd [1]: 3100 nM | Kd [2]: 400 nM | IC50 [3]: > 20000 nM | IC50 [4]: 200 nM | Kd [5]: 8300 nM

COc1ccc(F)cc1Nc1nc2c(ccc3c2ncn3C)s1 [Example 57, (5-Fluoro-2-methoxy-phenyl)-(6-methyl-6H-imidazo[4′,5′:3,4]benzo[2,1-d]thiazol-2-yl)-amine.HCl]
Kd [1]: 230 nM | Kd [2]: 35 nM | IC50 [3]: ~6000 nM | IC50 [4]: 70 nM | Kd [5]: 2800 nM

CC(C)Oc1ccc(C(N)=O)cc1Nc1nc2c(ccc3ccncc32)s1 [Example 89, 4-Isopropoxy-3-(thiazolo[5,4-h]isoquinolin-2-ylamino)-benzamide.TFA]
Kd [1]: 3100 nM | Kd [2]: 780 nM | IC50 [3]: 2800 nM | IC50 [4]: 330 nM | Kd [5]: 6800 nM

CC(C)Oc1ccc(C(N)=O)cc1Nc1nc2c(ccc3cnccc32)s1 [Example 90, 4-Isopropoxy-3-(thiazolo[4,5-f]isoquinolin-2-ylamino)-benzamide.TFA]
Kd [1]: 280 nM | Kd [2]: 3000 nM | IC50 [3]: 2500 nM | IC50 [4]: 200 nM | Kd [5]: 2700 nM
